In general, EC50 refers to the concentration needed to bring the measured effect to its halfway point. A lower EC50 goes with a more potent agent.

Each structure is given as a SMILES string.

In one assay the target is T1, ZAC^D108A (Homo sapiens, UniProt Q401N2, A152T/D132A).
T1 construct: expressed in transfected cells; host or cells: Xenopus oocytes (cRNA injection, pUNIV vector)
The assay is described as follows: TEVC in oocytes, ZAC D108A mutant. Type of assay: cell-based. As for the experimental part: (§1) The recordings were performed at room temperature.
(§2) Analysis of the data from the TEVC recordings were performed using Clampfit software version 10.5 (Molecular Devices, Crawley, UK) and GraphPad Prism version 7.0c (GraphPad Software, La Jolla, CA). Unless otherwise stated, the inward currents induced by agonists in oocytes were normalized to the maximal response elicited by a specific agonist (agonist Imax) on each oocyte. Concentration-response and concentration-inhibition curves were fitted in GraphPad Prism by nonlinear regression using the equation for sigmoidal dose-response with variable slope. Each data point represents the mean ± S.E.M. value of recordings performed on at least five oocytes in total from at least two different batches. […] The null hypothesis was rejected at P < 0.05, and the differences between the means were analyzed by Tukey’s multiple comparisons test.
(§3) The putative involvement of candidate residues in Clusters 1, 2, 3 and 4 in Zn^2+ binding to ZAC was investigated in by an elaborate alanine mutagenesis scanning. […] The determined IpH 4.0 value was used in part as a control and in part to enable the distinction of ZAC mutants non-responsive to Zn^2+ due to elimination of their ability to bind the metal ion from those where the mutation had eliminated cell surface expression and/or disrupted overall functionality of the receptor complex. […]

For a further assay, the target named is T2, ZAC^E160A/E162A/C195A (Homo sapiens, UniProt Q401N2, A152T/C219A/E184A/E186A).
T2 construct: expressed in transfected cells; host or cells: Xenopus oocytes injected with cRNA (pUNIV vector)
In words: TEVC in oocytes, Cluster 4 triple mutant. The assay is classed as cell-based. The following applies: agonist; n = 6. The protocol:
as §1, §2, §3

In the next assay the target is T3, ZAC^E89A (Homo sapiens, UniProt Q401N2, A152T/E113A).
T3 construct: expressed in transfected cells; host or cells: Xenopus oocytes injected with cRNA (pUNIV vector)
The assay is described as follows: TEVC in oocytes, ZAC E89A mutant. The note with it: agonist; n = 7. Type of assay: cell-based. The protocol: as §1, §2, §3

For another assay, the target named is T4, m5-HT3A/ZAC (Mus musculus / Homo sapiens, UniProt P23979).
T4 sequence (P23979 24-246): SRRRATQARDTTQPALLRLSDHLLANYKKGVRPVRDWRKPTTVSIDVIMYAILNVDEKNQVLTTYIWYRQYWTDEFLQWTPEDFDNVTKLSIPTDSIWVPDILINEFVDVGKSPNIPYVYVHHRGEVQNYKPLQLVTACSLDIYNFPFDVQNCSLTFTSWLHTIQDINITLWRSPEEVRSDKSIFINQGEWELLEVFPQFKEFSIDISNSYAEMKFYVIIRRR
T4 sequence (Q401N2 231-412 partner): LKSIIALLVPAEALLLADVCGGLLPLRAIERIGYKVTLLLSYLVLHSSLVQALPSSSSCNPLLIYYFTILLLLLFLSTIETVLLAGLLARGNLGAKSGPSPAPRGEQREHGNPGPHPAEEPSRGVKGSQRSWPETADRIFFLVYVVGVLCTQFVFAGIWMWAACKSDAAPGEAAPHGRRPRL
In words: TEVC in oocytes expressing m5-HT3A/ZAC chimera. Type of assay: cell-based. The text has this:
The construction of the ZAC-pUNIV plasmid (encoding for the human WT ZAC that contains a Thr in position 128) has been described previously. The m5-HT3A and hα1 GlyR cDNAs were subcloned from their original vectors into pUNIV (Addgene, Watertown, MA) using NheI and EcoRI as restriction enzymes. […] The C-terminus modifications in these four chimeras were introduced in their cDNAs in the same way. Point mutations were introduced in cDNAs by use of the QuikChange mutagenesis kit (Stratagene, San Diego, CA). The validity and absence of unwanted mutations in the constructed cDNAs was verified by DNA sequencing (Macrogen Europe, Amsterdam, The Netherlands).
All cDNAs used for cRNA synthesis were inserted in the pUNIV vector. The cDNAs were linearized and subsequently transcribed and capped using the mMessage mMachine T7 RNA transcription kit (Ambion, Waltham, MA). […] Oocytes were incubated in a sterile modified Barth’s solution [88 mM NaCl, 1 mM KCl, 15 mM HEPES (pH 7.5), 2.4 mM NaHCO3, 0.41 mM CaCl2, 0.82 mM MgSO4, 0.3 mM Ca(NO3)2, 100 U/ml penicillin and 100 μg/ml streptomycin] at 16–18 °C. Based on experience gained with WT ZAC in a recent study, all TEVC recordings were performed two days after cRNA injection.
On the day of the TEVC recording, all compound dilutions were prepared in a saline solution [115 mM NaCl, 2.5 mM KCl, 10 mM MOPS (pH 7.5), 1.8 mM CaCl2, 0.1 mM MgCl2], and pH was adjusted to 7.5 (if needed). Oocytes were placed in a recording chamber continuously perfused with this saline solution, and the compounds were applied in the perfusate. Both voltage and current electrodes were agar-plugged with 3 M KCl with a resistance of 0.2–2.0 MΩ. Oocytes were voltage-clamped at −50 mV (except in the studies of the chimeras and their parent receptors where they were clamped at −60 mV, section 3.1), by a Gene Clamp 500B amplifier, and current signals were digitized by a Digidata 1322A (both from Axon Instruments, Union City, CA). Currents were recorded using pCLAMP 10 (Molecular Devices, Sunnyvale, CA). The recordings were performed at room temperature.
In all recordings, compounds or compound combinations were applied in the bath until the peak current decayed to a steady state (up to 30 s). […] The antagonist properties of compounds were determined by pre-application of the compound to the perfusate for 30 s followed by co-application of the compound and the agonist. In all recordings, washes of 1–5 min were executed between the ligand applications, the length of the washes depending on the agonist concentrations used and on the return to baseline current amplitude.
(§4) Analysis of the data from the TEVC recordings were performed using Clampfit software version 10.5 (Molecular Devices, Crawley, UK) and GraphPad Prism version 7.0c (GraphPad Software, La Jolla, CA). Unless otherwise stated, the inward currents induced by agonists in oocytes were normalized to the maximal response elicited by a specific agonist (agonist Imax) on each oocyte. Concentration-response and concentration-inhibition curves were fitted in GraphPad Prism by nonlinear regression using the equation for sigmoidal dose-response with variable slope. Each data point represents the mean ± S.E.M. value of recordings performed on at least five oocytes in total from at least two different batches. For the data where statistical analysis was performed, a one-way ANOVA was used. The null hypothesis was rejected at P < 0.05, and the differences between the means were analyzed by Tukey’s multiple comparisons test.

Another assay relates to hα1-Gly/ZAC. The assay is described as follows: TEVC in oocytes expressing hα1-Gly/ZAC chimera. Type of assay: cell-based, human. The note with it: 10 mM Zn^2+; outward current; n = 5. The protocol:
as §1, §4
Initially, we constructed four chimeric subunits fusing the ZAC ECD or TMD-ICD with the complementary domains from either the m5-HT3A or the hα1 GlyR subunit: ZAC/m5-HT3A, m5-HT3A/ZAC, ZAC/hα1-Gly and hα1-Gly/ZAC (Fig. 1A). […] (Fig. 1A).

T2 sequence (Q401N2 26-412 A152T/E184A/E186A/C219A): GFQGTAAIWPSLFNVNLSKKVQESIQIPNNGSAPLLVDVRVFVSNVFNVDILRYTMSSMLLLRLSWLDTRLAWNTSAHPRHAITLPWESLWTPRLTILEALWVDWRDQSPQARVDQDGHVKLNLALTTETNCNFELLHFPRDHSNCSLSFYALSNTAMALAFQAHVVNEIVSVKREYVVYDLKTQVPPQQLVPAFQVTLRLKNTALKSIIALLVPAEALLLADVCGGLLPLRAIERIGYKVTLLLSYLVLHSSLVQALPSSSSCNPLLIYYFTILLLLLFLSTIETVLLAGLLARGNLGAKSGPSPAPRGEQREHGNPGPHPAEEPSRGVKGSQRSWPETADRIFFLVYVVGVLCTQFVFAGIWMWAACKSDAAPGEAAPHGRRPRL
T3 sequence (Q401N2 26-412 E113A/A152T): as the sequence (Q401N2 26-412 A152T/E184A/E186A/C219A) above, with E88A, A159E, A161E, A194C counted along it
T1 sequence (Q401N2 26-412 D132A/A152T): as the sequence (Q401N2 26-412 A152T/E184A/E186A/C219A) above, with D107A, A159E, A161E, A194C counted along it

`[Cl-].[Cl-].[Zn+2]` [Zn^2+, ZnCl2]: the “concentration-response relationship compared to WT ZAC” value at ZAC^D108A is listed as “did not differ significantly”. Besides, the EC50 on ZAC^E160A/E162A/C195A was 180 µM; at ZAC^E89A it was 160 µM. In addition, the “pEC50 ± S.E.M.” value is reported as 3.75 ± 0.05 on ZAC^E160A/E162A/C195A and 3.79 ± 0.07 on ZAC^E89A. Moreover, the “I10 mM Zn2+ ± S.E.M.” value on m5-HT3A/ZAC (10 mM Zn^2+, n = 4) is on record as 0.0037 ± 0.0013 μA; in the assay on hα1-Gly/ZAC, 0.0298 ± 0.0058 μA. In addition, the “modulation of 5-HT (EC80)-evoked currents” value on m5-HT3A/ZAC (5-HT 1 μM) was “monophasic concentration-inhibition relationship”.
